In patent US4835189A, “Phenolic thioalkylamides as inhibitors of 5-lipoxygenase” (G. D. Searle & Co., priority 1987, dated 1989):

Molecular target: T1, 5-lipoxygenase (Rattus norvegicus, UniProt P12527)
T1 construct: The 100,000 x g supernatant fraction of Rat Basophilic Leukemia Cell Homogenate (RBL-1) serves as a 5-lipoxygenase enzyme source; endogenous in cells; host or cells: RBL-1 (rat basophilic leukemia) cells, 100,000 x g supernatant of homogenate
T1 sequence (P12527 1-673): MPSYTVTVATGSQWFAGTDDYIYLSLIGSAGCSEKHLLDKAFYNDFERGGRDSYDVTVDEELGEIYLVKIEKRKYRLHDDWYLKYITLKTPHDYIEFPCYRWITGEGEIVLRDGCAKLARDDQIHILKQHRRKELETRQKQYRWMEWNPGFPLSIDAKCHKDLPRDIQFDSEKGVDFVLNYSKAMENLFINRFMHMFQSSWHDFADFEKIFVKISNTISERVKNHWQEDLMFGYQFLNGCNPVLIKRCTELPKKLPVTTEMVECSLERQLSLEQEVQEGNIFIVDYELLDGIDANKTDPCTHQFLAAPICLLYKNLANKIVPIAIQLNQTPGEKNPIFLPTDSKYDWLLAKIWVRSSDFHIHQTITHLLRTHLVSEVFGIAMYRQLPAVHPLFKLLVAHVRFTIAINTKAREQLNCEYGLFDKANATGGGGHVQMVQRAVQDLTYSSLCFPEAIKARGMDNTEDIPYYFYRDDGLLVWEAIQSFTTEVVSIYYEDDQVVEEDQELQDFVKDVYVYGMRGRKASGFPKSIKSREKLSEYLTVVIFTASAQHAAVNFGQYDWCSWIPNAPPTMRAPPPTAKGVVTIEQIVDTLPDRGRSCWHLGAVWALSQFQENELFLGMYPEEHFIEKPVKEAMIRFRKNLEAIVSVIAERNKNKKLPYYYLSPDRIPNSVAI
Test: Inhibition of 5-lipoxygenase, in vitro (5-HETE synthesis, RBL-1 homogenate 100,000 x g supernatant)
Type: biochemical
Details: RBL-1 100,000 x g supernatant, [1-14C]-arachidonic acid and Ca++
Protocol: The compounds of the invention are evaluated with respect to 5-lipoxygenaseinhibition according to the following assay procedure.
Inhibition of 5-lipoxygenase, in vitro: anti-inflammatory, anti-allergy activities.
The 100,000 x g supernatant fraction of Rat Basophilic Leukemia Cell Homogenate (RBL-1) serves as a 5-lipoxygenase enzyme source. The enzyme is incubated with [1-^14 C)-arachidonic acid and Ca++ in the presence and absence of test compound. The product of 5-lipoxygenase, 5-hydroxyeicosatetraenoic acid (5-HETE), is separated by thin-layer chromatography and measured by radioactivity. A compound inhibiting 5-HETE synthesis by 30% or more is considered active at that concentration.

Row | Compound | IC50 [nM]
1 | CC(C)N(Cc1ccccc1)C(=O)CCSc1cc(C(C)(C)C)c(O)c(C(C)(C)C)c1 [Example 4, 3-[[3,5-bis(1,1-dimethylethyl)-4-hydroxylphenyl]thio]-N-(1-methylethyl)-N-(phenylmethyl)propanamide] | 560
2 | CC(C)N(C(=O)CCSc1cc(C(C)(C)C)c(O)c(C(C)(C)C)c1)C(C)C [Example 5, 3-[[3,5-bis(1,1-dimethylethyl)-4-hydroxyphenyl]thio]-N,N-bis(1-methylethyl)propanamide] | 1400
